What was measured:
[1] = destruction of 2-methylisothiazolin-3-one in an aqueous emulsion paint using sodium thiosulfate; assay type: physicochemical
From the text: A drawback, however, is that according to the method described, the isothiazolinones, and especially the MIT, are not destroyed quantitatively or irreversibly, and so are still always present in the products and derivatives, and may still as before cause problems to persons reacting allergically, and/or may give rise to contact eczemas or aerogenic contact eczemas in persons having a high degree of sensitization.

[2] = system: microorganisms introduced via the individual components of the paint; test: microbiological investigations of the preserved emulsion paint; assay type: cell-based; conditions: 20 ppm of 5-chloro-2-methylisothiazolin-3-one (2-methylisothiazolin-3-one content <1 wt %) in water-based emulsion paint; growth detectable in individual components
From the text: Added to a preservative-free styrene-acrylate dispersion were 20 ppm of 5-chloro-2-methylisothiazolin-3-one, having a 2-methylisothiazolin-3-one content of <1 wt %. The styrene-acrylate dispersion thus preserved was then used for producing a water-based emulsion paint. The composition of the paint produced was as follows: • 25.7 wt % water • 0.2 wt % acrylate-based wetting and dispersing agent • 0.2 wt % mineral oil-based defoamer • 2.0 wt % water softener (sodium polyphosphate) • 0.2 wt % ammonia • 4.0 wt % titanium oxide (pigment) • 51.0 wt % calcium carbonate (filler) • 5.0 wt % talc (filler) • 0.4 wt %% cellulose ether • 2.0 wt % organic solvent for lowering the minimum film-forming temperature • 9.0 wt % the styrene-acrylate dispersion preserved with 20 ppm of 5-chloro-2-methylisothiazolin-3-one • 20 ppm 5-chloro-2-methylisothiazolin-3-one, having a 2-methylisothiazolin-3-one content of <1 wt %

[3] = decomposition of 5-chloro-2-methylisothiazolin-3-one in the emulsion paint by cysteine, HPLC; assay type: physicochemical; conditions: after 3 hours, addition of 50 ppm of cysteine based on the emulsion paint
From the text: In order, from the emulsion paint, which contained significant quantities of 5-chloro-2-methylisothiazolin-3-one, to produce a paint unobjectionable for allergics in relation to 5-chloro-2-methylisothiazolin-3-one and 2-methylisothiazolin-3-one present therein, to produce, these isothiazolin-3-ones were decomposed by addition of 50 ppm of cysteine, based on the emulsion paint.

SMILES	destruction of 2-methylisothiazolin-3-one [1]	microbial growth in the emulsion paint [2]	detectability of 5-chloro-2-methylisothiazolin-3-one in the emulsion paint by HPLC [3]
Cn1sccc1=O [2-methylisothiazolin-3-one]	destroyed neither quantitatively nor irreversibly		
Cn1sc(Cl)cc1=O [5-chloro-2-methylisothiazolin-3-one]		no microbial growth	no longer detectable
